According to patent US8835428B2, “Diacylglycerol acyltransferase inhibitors” (Piramal Enterprises Limited, priority 2008, dated 2014):

Each compound was assayed against T1, hDGAT1 (Homo sapiens, UniProt O75907) (assay: In-vitro DGAT1 assay (hDGAT1 microsomes from Sf9 cells, 14C oleoyl CoA, triglyceride formation)). Details: At 1 μM.
T1 construct: host or cells: Sf9 insect cells (baculovirus); microsomal preparation
T1 sequence (O75907 1-488): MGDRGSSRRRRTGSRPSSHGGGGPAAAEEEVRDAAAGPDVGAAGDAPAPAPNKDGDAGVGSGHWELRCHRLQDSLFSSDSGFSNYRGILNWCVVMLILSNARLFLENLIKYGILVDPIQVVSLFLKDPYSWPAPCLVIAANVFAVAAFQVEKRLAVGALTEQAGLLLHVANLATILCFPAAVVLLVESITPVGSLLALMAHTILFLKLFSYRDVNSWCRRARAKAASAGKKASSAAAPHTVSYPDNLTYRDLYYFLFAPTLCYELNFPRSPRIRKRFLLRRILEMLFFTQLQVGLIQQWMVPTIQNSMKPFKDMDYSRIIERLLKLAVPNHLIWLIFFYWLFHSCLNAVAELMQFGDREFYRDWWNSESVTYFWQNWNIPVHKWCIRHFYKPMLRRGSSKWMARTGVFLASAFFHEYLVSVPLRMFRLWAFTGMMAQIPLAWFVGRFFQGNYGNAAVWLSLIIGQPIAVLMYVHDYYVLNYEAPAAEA
Assay type: biochemical
How it was run: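 Compounds tested in duplicate at 10, 5 and 1 μM for 10 min at 37 °C. Reaction: Sf9-expressed hDGAT1 microsomes (2.5–10 μg), [14C]oleoyl-CoA plus 409.5–1638 μM dioleoylglycerol, pH 7.4 Tris-HCl with fatty-acid-free BSA. Radiolabelled triglyceride extracted into heptane and scintillation-counted.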

Row | inhibition at 1 µM [%] | SMILES
1 | 75 to 100 | CC(C)[C@H](NC(=O)c1cc(-c2ccc(NC(=O)Nc3ccc(F)c(F)c3F)cc2)no1)C(=O)O [Example 191, (S)-3-Methyl-2-(3-(4-(3-(2,3,4-trifluorophenyl)ureido)phenyl)isoxazole-5-carboxamido)butanoic acid]
2 | 75 to 100 | Cc1ccc(NC(=O)Nc2ccc(-c3cc(C(=O)N[C@H](C(=O)O)C(C)C)on3)cc2)cc1C [Example 173, (S)-2-(3-(4-(3-(3,4-dimethylphenyl)ureido)phenyl)isoxazole-5-carboxamido)-3-methylbutanoic acid]
3 | 0 to 50 | CC(C)C(NC(=O)c1cc(-c2ccc(NC(=O)C(=O)Nc3ccc(F)cc3F)cc2)no1)C(=O)O (stereo not shown) [Example 339, 2-(3-(4-(2-(2,4-difluorophenylamino)-2-oxoacetamido)phenyl)isoxazole-5-carboxamido)-3-methylbutanoic acid]
4 | 75 to 100 | Cc1cc(OC(F)(F)F)ccc1NC(=O)Nc1ccc(-c2cc(C(=O)NC(C(=O)O)C(C)C)on2)cc1 (stereo not shown) [Example 295, 3-methyl-2-(3-(4-(3-(2-methyl-4-(trifluoromethoxy)phenyl)ureido)phenyl)isoxazole-5-carboxamido)butanoic acid]

Further lines, the compound ahead of its results:

Row | SMILES | inhibition at 1 µM [%]
5 | COC(=O)[C@H](C(C)C)N(C)C(=O)c1cc(-c2ccc(NC(=O)Nc3ccccc3F)cc2)no1 [Example 305, (S)-Methyl 2-(3-(4-(3-(2-fluorophenyl)ureido)phenyl)-N-methylisoxazole-5-carboxamido)-3-methylbutanoate] | 50 to 75
6 | C=C(NC(=O)c1cc(-c2ccc(NC(=O)Nc3ccc(C)cc3)cc2)no1)C(=O)O [Example 304, 2-(3-(4-(3-p-tolylureido)phenyl)isoxazole-5-carboxamido)acrylic acid] | 50 to 75
7 | COC(=O)C(NC(=O)c1cc(-c2ccc(OCc3ccccc3C(F)(F)F)cc2)no1)C(C)C (stereo not shown) [Example 329, Methyl 3-methyl-2-(3-(4-(2-(trifluoromethyl)benzyloxy)phenyl)isoxazole-5-carboxamido)butanoate] | 0 to 50

Same assay, conditions: At 5 μM

Row | inhibition at 5 µM [%] | SMILES
8 | 0 to 50 | COC(=O)[C@@H](NC(=O)c1nc(-c2ccc(NC(=S)Nc3ccccc3)cc2)no1)C(C)C [Example 357, (S)-methyl 3-methyl-2-(3-(4-(3-phenylthioureido)phenyl)-1,2,4-oxadiazole-5-carboxamido)butanoate]
9 | 50 to 75 | COC(=O)[C@@H](NC(=O)c1cc(-c2ccc(NC(=O)Nc3ccc(F)cc3)cc2F)no1)C(C)C [Example 145, (S)-Methyl 2-(3-(2-fluoro-4-(3-(4-fluorophenyl)ureido)phenyl)isoxazole-5-carboxamido)-3-methylbutanoate]

Same assay, conditions: At 10 μM

Row | inhibition at 10 µM [%] | SMILES
10 | 0 to 50 | COC(=O)C1(NC(=O)c2cc(-c3ccc(Nc4nc5ccc(F)cc5s4)cc3)no2)CCCC1 [Example 62, 1-({3-[4-(6-fluoro-benzothiazol-2-ylamino)-phenyl]-isoxazole-5-carbonyl}-amino)-cyclopentanecarboxylic acid methyl ester]
11 | 0 to 50 | CC(C)C[C@H](NC(=O)c1onc(-c2ccc(NC(=O)Nc3ccccc3)cc2)c1-c1ccccc1)C(=O)O [Example 91, (S)-4-Methyl-2-({4-phenyl-3-[4-(3-phenyl-ureido)-phenyl]-isoxazole-5-carbonyl}-amino)-pentanoic acid]
12 | 50 to 75 | COC(=O)[C@@H](NC(=O)c1cc(-c2ccc(NC(=O)Nc3ccc(F)cc3)cc2)no1)C(C)C [Example 84, (S)-2-[(3-{4-[3-(4-Fluoro-phenyl}-ureido]-phenyl)-isoxazole-5-carbonyl)-amino]-3-methyl-butyric acid methyl ester]
13 | 50 to 75 | O=C(N[C@@H](CO)C(=O)O)c1cc(-c2ccc(Nc3nc4ccc(F)cc4s3)cc2)no1 [Example 10, (S)-2-({3-[4-(6-Fluoro-benzothiazol-2-ylamino)-phenyl]-isoxazole-5-carbonyl}-amino)-3-hydroxy-propionic acid]
